Reference: ChEMBL document CHEMBL4376834, “Discovery of 4H-Chromen-4-one Derivatives as a New Class of Selective Rho Kinase (ROCK) Inhibitors, which Showed Potent Activity in ex Vivo Diabetic Retinopathy Models” (J Med Chem, 2019)

Experiments:
[1] = molecular target: Protein kinase C iota type (Homo sapiens, UniProt P41743); assay: Inhibition of recombinant full-length human PKCiota using ERMRPRKRQGSVRR as substrate incubated for 40 mins in presence of [gamma33P]ATP by radiometric scintillation counting analysis
CDK12/Cyclin K = CDK12/Cyclin K (Homo sapiens, UniProt Q9NYV4); assay: Inhibition of recombinant full length human CDK12/cyclinK using RSRSRSRSRSRSR as substrate incubated for 120 mins in presence of [gamma-33ATP] by radiometric scintillation counting analysis; type: protein-complex assay
CDK12/Cyclin K, sequence (O75909 whole entry, the tested form may be a part): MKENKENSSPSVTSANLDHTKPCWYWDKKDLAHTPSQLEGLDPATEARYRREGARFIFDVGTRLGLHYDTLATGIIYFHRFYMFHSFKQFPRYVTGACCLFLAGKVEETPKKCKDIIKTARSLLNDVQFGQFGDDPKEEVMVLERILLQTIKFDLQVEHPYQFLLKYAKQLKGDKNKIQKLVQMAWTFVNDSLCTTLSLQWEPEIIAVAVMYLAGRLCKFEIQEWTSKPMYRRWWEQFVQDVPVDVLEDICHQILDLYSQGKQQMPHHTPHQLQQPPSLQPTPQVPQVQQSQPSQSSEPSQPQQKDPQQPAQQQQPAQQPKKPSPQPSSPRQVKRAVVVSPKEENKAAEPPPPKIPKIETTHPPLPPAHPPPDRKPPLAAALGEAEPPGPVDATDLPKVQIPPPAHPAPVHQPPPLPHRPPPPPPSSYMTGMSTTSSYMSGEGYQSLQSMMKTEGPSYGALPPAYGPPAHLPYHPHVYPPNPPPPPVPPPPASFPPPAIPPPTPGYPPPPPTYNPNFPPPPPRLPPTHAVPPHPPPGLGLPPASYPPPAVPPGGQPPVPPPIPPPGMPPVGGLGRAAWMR
CDK12/Cyclin K, sequence (Q9NYV4 whole entry, the tested form may be a part): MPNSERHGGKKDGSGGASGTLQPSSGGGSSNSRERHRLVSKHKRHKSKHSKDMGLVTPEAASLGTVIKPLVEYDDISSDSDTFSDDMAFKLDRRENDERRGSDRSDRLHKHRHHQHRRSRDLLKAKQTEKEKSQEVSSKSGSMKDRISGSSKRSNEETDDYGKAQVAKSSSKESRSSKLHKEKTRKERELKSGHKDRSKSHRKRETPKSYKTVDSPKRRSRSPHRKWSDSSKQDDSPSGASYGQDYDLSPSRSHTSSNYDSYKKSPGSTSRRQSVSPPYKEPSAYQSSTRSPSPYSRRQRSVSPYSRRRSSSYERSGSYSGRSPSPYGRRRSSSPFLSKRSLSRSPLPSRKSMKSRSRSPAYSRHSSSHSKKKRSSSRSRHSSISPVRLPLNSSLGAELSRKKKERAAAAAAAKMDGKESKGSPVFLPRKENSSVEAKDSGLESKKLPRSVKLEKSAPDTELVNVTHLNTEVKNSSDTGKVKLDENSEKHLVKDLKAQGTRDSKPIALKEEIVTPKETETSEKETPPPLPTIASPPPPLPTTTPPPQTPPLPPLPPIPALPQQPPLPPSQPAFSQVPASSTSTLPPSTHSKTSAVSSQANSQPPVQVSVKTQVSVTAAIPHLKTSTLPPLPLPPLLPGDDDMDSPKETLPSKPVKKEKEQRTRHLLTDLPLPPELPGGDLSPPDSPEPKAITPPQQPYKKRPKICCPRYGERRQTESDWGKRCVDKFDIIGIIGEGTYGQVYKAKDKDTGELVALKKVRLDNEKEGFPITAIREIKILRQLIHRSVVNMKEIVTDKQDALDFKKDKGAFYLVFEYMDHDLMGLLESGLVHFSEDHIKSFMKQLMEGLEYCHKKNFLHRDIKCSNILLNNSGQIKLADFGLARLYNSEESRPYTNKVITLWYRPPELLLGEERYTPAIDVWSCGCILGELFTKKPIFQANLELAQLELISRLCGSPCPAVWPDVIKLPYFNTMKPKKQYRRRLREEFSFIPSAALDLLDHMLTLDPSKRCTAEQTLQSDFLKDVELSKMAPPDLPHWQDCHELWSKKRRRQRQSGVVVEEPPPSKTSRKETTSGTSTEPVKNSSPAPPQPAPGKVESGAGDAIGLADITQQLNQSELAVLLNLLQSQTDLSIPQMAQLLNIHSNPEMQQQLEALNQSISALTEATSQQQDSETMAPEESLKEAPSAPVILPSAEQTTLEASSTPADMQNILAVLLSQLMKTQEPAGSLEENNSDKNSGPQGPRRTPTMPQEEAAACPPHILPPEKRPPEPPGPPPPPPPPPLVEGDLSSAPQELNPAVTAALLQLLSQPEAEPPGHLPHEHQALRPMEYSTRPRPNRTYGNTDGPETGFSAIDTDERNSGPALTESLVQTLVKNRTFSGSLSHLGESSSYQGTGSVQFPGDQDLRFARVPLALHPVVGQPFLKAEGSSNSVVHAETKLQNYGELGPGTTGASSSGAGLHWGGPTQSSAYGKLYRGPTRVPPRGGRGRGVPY

[2] = molecular target: Receptor-interacting serine/threonine-protein kinase 1 (Homo sapiens, UniProt Q13546); assay: Inhibition of recombinant human RIPK1 (8 to 322 residues) using myelin basic protein as substrate incubated for 40 mins in presence of [gamma33P]ATP by radiometric scintillation counting analysis
Receptor-interacting serine/threonine-protein kinase 1, sequence (Q13546 whole entry, the tested form may be a part): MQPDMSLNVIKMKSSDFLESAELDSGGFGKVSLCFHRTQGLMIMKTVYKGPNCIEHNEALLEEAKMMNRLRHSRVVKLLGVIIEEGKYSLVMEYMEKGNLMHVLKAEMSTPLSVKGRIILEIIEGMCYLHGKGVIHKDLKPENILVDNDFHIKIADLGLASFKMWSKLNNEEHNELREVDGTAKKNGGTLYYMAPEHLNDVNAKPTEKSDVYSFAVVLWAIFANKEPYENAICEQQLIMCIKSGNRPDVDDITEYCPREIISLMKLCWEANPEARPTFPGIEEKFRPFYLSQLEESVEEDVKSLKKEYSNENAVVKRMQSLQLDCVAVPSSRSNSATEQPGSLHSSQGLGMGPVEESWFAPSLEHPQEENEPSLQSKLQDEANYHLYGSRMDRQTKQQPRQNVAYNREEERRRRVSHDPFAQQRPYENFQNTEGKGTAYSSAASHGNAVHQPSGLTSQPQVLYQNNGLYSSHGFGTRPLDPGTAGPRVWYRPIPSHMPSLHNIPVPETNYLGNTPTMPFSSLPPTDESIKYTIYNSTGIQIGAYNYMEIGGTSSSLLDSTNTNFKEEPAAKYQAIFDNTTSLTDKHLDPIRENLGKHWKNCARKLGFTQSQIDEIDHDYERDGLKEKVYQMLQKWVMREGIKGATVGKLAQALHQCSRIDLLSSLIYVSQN

[3] = molecular target: Eukaryotic translation initiation factor 2-alpha kinase 3 (Homo sapiens, UniProt Q9NZJ5); assay: Inhibition of human PEK (536 to end residues) using RSRSRSRSRSRSRSR as substrate measured after 40 mins in presence of [gamma33P]ATP by radiometric scintillation counting analysis
[4] = Inhibition of human MAPK2
[5] = molecular target: Non-receptor tyrosine-protein kinase TYK2 (Homo sapiens, UniProt P29597); assay: Inhibition of recombinant human TYK2 (875 to end residues) using GGMEDIYFEFMGG as substrate incubated for 40 mins in presence of [gamma33P]ATP by radiometric scintillation counting analysis
[6] = molecular target: Hepatocyte growth factor receptor (Homo sapiens, UniProt P08581, A1209G/V1290L); assay: Inhibition of recombinant human MET A1209G/V1290L double mutant (974 to end residues) using KKKGQEEEYVFIE as substrate incubated for 40 mins in presence of [gamma-33ATP by radiometric scintillation counting analysis
Hepatocyte growth factor receptor, sequence (P08581 whole entry, looked up, stated change not applied): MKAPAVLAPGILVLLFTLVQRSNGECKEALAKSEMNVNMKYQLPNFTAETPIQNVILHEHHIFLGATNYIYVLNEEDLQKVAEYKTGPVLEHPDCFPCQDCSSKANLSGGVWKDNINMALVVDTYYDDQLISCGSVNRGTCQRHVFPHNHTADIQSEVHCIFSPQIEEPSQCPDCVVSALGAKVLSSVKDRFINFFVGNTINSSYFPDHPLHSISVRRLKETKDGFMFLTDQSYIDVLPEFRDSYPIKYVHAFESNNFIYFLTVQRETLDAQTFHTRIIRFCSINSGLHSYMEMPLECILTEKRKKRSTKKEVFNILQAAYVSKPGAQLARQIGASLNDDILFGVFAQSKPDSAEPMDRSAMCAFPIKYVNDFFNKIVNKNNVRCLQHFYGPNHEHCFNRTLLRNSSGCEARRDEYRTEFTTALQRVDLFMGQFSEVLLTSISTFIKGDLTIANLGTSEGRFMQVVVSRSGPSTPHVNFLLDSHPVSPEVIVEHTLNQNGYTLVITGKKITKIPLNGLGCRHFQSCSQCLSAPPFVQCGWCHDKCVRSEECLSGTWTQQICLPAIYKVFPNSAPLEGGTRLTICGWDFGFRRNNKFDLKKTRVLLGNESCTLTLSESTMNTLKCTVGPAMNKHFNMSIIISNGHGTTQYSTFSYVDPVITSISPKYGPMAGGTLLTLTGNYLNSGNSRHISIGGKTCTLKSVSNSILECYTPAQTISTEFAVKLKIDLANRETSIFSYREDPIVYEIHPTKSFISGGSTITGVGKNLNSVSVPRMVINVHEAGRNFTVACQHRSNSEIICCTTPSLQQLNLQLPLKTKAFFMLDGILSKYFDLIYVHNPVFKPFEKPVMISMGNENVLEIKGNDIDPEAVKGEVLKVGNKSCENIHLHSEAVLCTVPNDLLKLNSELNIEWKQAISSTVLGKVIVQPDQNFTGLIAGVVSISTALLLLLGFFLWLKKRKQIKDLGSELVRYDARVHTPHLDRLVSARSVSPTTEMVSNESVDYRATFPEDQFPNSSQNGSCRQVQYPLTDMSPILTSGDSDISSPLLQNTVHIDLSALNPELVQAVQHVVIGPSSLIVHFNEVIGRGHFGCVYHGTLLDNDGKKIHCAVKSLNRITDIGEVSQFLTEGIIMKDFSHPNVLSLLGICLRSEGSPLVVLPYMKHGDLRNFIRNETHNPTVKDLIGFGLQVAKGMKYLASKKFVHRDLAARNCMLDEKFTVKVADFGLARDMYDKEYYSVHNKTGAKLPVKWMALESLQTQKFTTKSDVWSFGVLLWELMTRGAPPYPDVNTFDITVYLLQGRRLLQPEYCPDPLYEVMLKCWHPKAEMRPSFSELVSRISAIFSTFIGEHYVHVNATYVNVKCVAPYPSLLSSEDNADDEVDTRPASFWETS

[7] = molecular target: Serine/threonine-protein kinase DCLK2 (Homo sapiens, UniProt Q8N568); assay: Inhibition of recombinant human DCAMKL2 (376 to end residues) using KKLNRTLSFAEPG as substrate after 40 mins in presence of [gamma-33ATP] by radiometric scintillation counting analysis
Serine/threonine-protein kinase DCLK2, sequence (Q8N568 whole entry, the tested form may be a part): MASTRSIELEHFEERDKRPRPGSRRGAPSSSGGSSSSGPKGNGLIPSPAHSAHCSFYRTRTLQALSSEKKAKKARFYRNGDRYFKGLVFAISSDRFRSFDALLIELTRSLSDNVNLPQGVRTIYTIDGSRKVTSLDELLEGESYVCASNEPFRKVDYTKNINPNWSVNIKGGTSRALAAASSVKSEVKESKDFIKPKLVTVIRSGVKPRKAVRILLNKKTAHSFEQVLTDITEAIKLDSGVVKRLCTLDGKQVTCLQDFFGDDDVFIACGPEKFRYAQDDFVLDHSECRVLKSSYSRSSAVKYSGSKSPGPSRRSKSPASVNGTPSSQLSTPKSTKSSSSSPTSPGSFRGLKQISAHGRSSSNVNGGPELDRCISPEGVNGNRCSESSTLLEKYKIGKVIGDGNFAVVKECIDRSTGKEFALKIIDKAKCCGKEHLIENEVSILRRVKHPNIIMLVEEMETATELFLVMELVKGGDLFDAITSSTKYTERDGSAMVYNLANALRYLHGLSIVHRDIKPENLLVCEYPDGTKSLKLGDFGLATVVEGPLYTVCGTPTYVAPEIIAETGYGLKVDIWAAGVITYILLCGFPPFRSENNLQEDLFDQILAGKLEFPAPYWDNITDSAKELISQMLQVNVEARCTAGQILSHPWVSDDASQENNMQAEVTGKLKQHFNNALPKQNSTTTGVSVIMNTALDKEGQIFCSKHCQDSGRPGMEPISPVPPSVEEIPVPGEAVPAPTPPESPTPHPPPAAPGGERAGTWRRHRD

[8] = molecular target: Tyrosine-protein kinase HCK (Homo sapiens, UniProt P08631); assay: Inhibition of human recombinant activated HCK (230 to 497 residues) using GGMEDIYFEFMGG as substrate after 40 mins by [gamma-33ATP] radiometric assay

Measured: IC50

CN(C)c1ccc(C(=O)Nc2cccc(NC(=O)COc3ccc4c(=O)ccoc4c3)c2)cc1
> 10 µM: all assays above
